Results: patent US7888386B2, “3-(phenoxyphenylmethyl)pyrrolidine compounds” (Theravance, Inc., priority 2008, dated 2011)
Where two headings read alike, the source gives them in different places.

How the values were obtained:
hSERT = target: T1, hSERT (Homo sapiens, UniProt P31645); assay: hSERT binding assay (Assay 1)
T1 construct: expressed in transfected cells; host or cells: HEK-293 derived cell line, stably transfected; membrane preparation
Description: (§1) Membrane radioligand binding assays were used to measure competitive inhibition of labeled ligand (^3H-citalopram or ^3H-nisoxetine or ^3H-WIN35428) binding to membranes prepared from cells expressing the respective human recombinant transporter (hSERT or hNET or hDAT) in order to determine the pKi values of test compounds at the transporters.
(§2) Recombinant human embryonic kidney (HEK-293) derived cell lines stably transfected with hSERT or hNET, respectively, were grown in DMEM medium supplemented with 10% dialyzed FBS (for hSERT) or FBS (for hNET), 100 μg/ml penicillin, 100 μg/ml streptomycin, 2 mM L-glutamine and 250 μg/ml of the aminoglycoside antibiotic G418, in a 5% CO2 humidified incubator at 37° C. When cultures reached 80% confluence, the cells were washed thoroughly in PBS (without Ca^2+ and Mg^2+) and lifted with 5 mM EDTA in PBS. Cells were pelleted by centrifugation, resuspended in lysis buffer (10 mM Tris-HCl, pH 7.5 containing 1 mM EDTA), homogenized, pelleted by centrifugation, then resuspended in 50 mM Tris-HCl, pH 7.5 and 10% sucrose at 4° C. Protein concentration of the membrane suspension was determined using a Bio-Rad Bradford Protein Assay kit. Membranes were snap frozen and stored at −80° C. Chinese hamster ovary membranes expressing hDAT (CHO-DAT) were purchased from PerkinElmer and stored at −80° C.
(§3) Stock solutions (10 mM in DMSO) of test compound were prepared and serial dilutions made using Dilution Buffer (50 mM Tris-HCl, 120 mM NaCl, 5 mM KCl, pH 7.4, 0.1% BSA, 400 μM ascorbic acid).
(§4) Following a 60 minute incubation at 22° C. (or a period sufficient to reach equilibrium), the membranes were harvested by rapid filtration over a 96-well UniFilter GF/B plate, pretreated with 0.3% polyethyleneimine, and washed 6 times with 300 μl wash buffer (50 mM Tris-HCl, 0.9% NaCl, pH 7.5 at 4° C.). Plates were dried overnight at room temperature, ˜45 μl of MicroScint™-20 (Perkin Elmer) added and bound radioactivity quantitated via liquid scintillation spectroscopy. Competitive inhibition curves and saturation isotherms were analyzed using GraphPad Prism Software package (GraphPad Software, Inc., San Diego, Calif.). IC50 values were generated from concentration response curves using the Sigmoidal Dose Response (variable slope) algorithm in Prism GraphPad.

hNET = target: T2, hNET (Homo sapiens, UniProt P23975); assay: hNET binding assay (Assay 1); conditions: hNET binding, read-out: NET pKi (converted)
T2 construct: expressed in transfected cells; host or cells: HEK-293 derived cell line, stably transfected; membrane preparation
Description: as §1, §2, §3, §4

[1] = ratio of SERT Ki to NET Ki (binding)
[2] = ratio of binding Ki at SERT to Ki at NET, the tables list only compounds with a ratio in the range 0.1-100
[3] = the tables list only compounds with NET pKi≧8

T2 sequence (P23975 whole entry): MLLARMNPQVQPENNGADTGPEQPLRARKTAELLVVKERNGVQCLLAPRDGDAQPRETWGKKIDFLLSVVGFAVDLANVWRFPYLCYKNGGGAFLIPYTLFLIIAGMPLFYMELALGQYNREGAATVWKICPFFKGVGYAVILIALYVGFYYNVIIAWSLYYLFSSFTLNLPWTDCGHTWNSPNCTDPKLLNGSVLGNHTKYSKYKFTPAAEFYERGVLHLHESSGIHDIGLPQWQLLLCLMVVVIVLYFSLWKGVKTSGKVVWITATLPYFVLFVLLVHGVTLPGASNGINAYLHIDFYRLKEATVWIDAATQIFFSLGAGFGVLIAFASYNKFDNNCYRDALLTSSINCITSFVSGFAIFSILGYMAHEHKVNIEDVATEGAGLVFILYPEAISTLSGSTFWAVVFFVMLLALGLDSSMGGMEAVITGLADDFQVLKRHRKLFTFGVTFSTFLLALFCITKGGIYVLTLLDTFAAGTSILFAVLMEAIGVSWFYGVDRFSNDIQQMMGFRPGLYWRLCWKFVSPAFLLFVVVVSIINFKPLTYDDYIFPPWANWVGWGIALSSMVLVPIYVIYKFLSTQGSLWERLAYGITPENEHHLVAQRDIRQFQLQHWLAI
T1 sequence (P31645 whole entry): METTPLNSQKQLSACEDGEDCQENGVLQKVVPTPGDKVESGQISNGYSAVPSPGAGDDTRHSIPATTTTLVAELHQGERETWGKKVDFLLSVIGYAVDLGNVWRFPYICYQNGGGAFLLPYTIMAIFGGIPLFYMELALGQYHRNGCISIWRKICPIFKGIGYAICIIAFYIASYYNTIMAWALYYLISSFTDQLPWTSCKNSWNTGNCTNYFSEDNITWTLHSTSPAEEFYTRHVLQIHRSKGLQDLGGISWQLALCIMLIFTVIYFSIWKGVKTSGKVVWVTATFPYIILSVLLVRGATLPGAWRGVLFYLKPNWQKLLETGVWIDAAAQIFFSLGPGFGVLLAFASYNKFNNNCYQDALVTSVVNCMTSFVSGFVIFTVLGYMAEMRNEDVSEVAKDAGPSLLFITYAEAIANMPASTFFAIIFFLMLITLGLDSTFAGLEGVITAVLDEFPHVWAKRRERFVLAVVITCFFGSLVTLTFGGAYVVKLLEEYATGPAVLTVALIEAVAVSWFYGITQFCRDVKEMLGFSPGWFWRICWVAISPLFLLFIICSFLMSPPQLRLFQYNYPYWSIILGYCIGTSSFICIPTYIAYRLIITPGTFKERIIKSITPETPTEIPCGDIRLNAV

| SMILES | SERT Ki/NET Ki (hSERT; [1]) | Ki (hNET) | SERT Ki/NET Ki (hSERT; [2]) | Ki (hNET; [3]) |
| --- | --- | --- | --- | --- |
| Fc1cc(F)cc(C(Oc2c(F)ccc(Cl)c2F)C2CCNC2)c1 (stereo not shown) [41-5] | 50 | 0.2 nM | – | – |
| Fc1cc(F)cc(C(Oc2c(F)ccc(Cl)c2F)C2CCNC2)c1 (stereo not shown) [41-6] | 1 | 0.501 nM | – | – |
| Cc1ccc(F)c(OC(c2cc(F)cc(F)c2)C2CCNC2)c1F (stereo not shown) [41-7] | 1.3 | 1 nM | – | – |
| Cc1ccc(Cl)c(OC(c2cc(F)cc(F)c2)C2CCNC2)c1F (stereo not shown) [41-8] | 7.9 | 0.398 nM | – | – |
| Cc1ccc(Cl)c(O[C@H](c2cc(F)cc(F)c2)[C@@H]2CCNC2)c1F [41-9] | 0.8 | 0.794 nM | – | – |
| Fc1cc(F)cc(C(Oc2c(Cl)ccc(Cl)c2Cl)C2CCNC2)c1 (stereo not shown) [41-11] | 0.8 | 0.398 nM | – | – |
| Cc1ccc(Cl)c(OC(c2cccc(C#N)c2)C2CCNC2)c1Cl (stereo not shown) [41-14] | 7.9 | 0.631 nM | – | – |
| Cc1ccc(Cl)c(OC(c2ccc(C#N)cc2)C2CCNC2)c1Cl (stereo not shown) [41-15] | 0.6 | 1 nM | – | – |
| Cc1ccc(Cl)c(O[C@H](c2cccc(CO)c2)[C@H]2CCNC2)c1Cl [41-17] | 5 | 1 nM | – | – |
| Cc1ccc(Cl)c(OC(c2ccccc2Cl)C2CCNC2)c1Cl (stereo not shown) [41-18] | 0.4 | 1.58 nM | – | – |
| Cc1ccc(Cl)c(OC(c2ccc(Cl)cc2)C2CCNC2)c1Cl (stereo not shown) [41-19] | 0.6 | 1.26 nM | – | – |
| Cc1ccc(Cl)c(OC(c2cc(F)cc(Cl)c2)C2CCNC2)c1Cl (stereo not shown) [41-24] | 1 | 1 nM | – | – |
| Cc1ccc(Cl)c(O[C@@H](c2cc(F)cc(F)c2)[C@H]2CCNC2)c1Cl [41-27] | 0.8 | 0.794 nM | – | – |
| Cc1ccc(F)c(OC(c2cc(F)cc(F)c2)C2CCNC2)c1Cl (stereo not shown) [41-28] | 6.3 | 0.316 nM | – | – |
| Cc1ccc(F)c(OC(c2cc(F)cc(F)c2)C2CCNC2)c1Cl (stereo not shown) [41-29] | 0.5 | 0.251 nM | – | – |
| Fc1cc(F)cc(C(Oc2c(F)ccc(F)c2Cl)C2CCNC2)c1 (stereo not shown) [41-30] | 32 | 0.2 nM | – | – |

| SMILES | SERT Ki/NET Ki (hSERT; [1]) | Ki (hNET) | SERT Ki/NET Ki (hSERT; [2]) | Ki (hNET; [3]) |
| --- | --- | --- | --- | --- |
| Fc1cc(F)cc([C@@H](Oc2c(F)ccc(F)c2Cl)[C@@H]2CCNC2)c1 [41-31] | 0.6 | 0.251 nM | – | – |
| N#Cc1cccc([C@H](Oc2c(F)ccc(F)c2Cl)[C@H]2CCNC2)c1 [41-32] | 40 | 0.398 nM | – | – |
| N#Cc1cccc([C@@H](Oc2c(F)ccc(F)c2Cl)[C@@H]2CCNC2)c1 [41-33] | 0.4 | 0.794 nM | – | – |
| N#Cc1cccc([C@H](Oc2c(F)ccc(F)c2Cl)[C@@H]2CCNC2)c1 [41-34] | 0.8 | 7.94 nM | – | – |
| NC(=O)c1cccc(C(Oc2c(F)ccc(F)c2Cl)C2CCNC2)c1 (stereo not shown) [41-36] | 7.9 | 1 nM | – | – |
| Fc1cc(F)c(OC(c2ccccc2)C2CCNC2)cc1F (stereo not shown) [42-1] | 1.6 | 7.94 nM | – | – |
| Cc1cc(Cl)c(OC(c2ccccc2)C2CCNC2)cc1F (stereo not shown) [42-4] | 0.5 | 2.51 nM | – | – |
| COc1cc(Cl)c(F)cc1OC(c1ccccc1)C1CCNC1 (stereo not shown) [42-8] | 0.4 | 1.26 nM | – | – |
| Fc1cc(F)cc(C(Oc2cc(F)c(F)cc2F)C2CCNC2)c1 (stereo not shown) [43-1] | 32 | 2 nM | – | – |
| COc1cc(Cl)c(F)cc1OC(c1cc(F)cc(F)c1)C1CCNC1 (stereo not shown) [43-2] | 1.3 | 2 nM | – | – |
| CCc1cc(F)cc(F)c1O[C@@H](c1ccccc1)[C@H]1CCNC1 [44-4] | – | – | 0.3 | 0.631 nM |
| CC(=O)c1cc(F)cc(F)c1O[C@@H](c1ccccc1)[C@H]1CCNC1 [44-6] | – | – | 13 | 1.58 nM |
| Fc1cc(Cl)cc(F)c1OC(c1ccccc1)C1CCNC1 (stereo not shown) [44-8] | – | – | 0.1 | 3.98 nM |
| Fc1cc(Cl)cc(F)c1O[C@@H](c1ccccc1)[C@H]1CCNC1 [44-9] | – | – | 0.1 | 2.51 nM |
| Fc1cc(Cl)c(O[C@@H](c2ccccc2)[C@H]2CCNC2)c(Cl)c1 [44-21] | – | – | 0.5 | 6.31 nM |
| COC(=O)c1cc(F)cc(F)c1O[C@@H](c1ccccc1)[C@H]1CCNC1 [44-28] | – | – | 2.5 | 1 nM |
